Source: patent US20240101546A1, “HETEROARYL-ACETYLENES, PHARMACEUTICAL COMPOSITIONS THEREOF, AND THEIR THERAPEUTIC APPLICATIONS” (Eubulus Biotherapeutics Inc., priority 2020, published 2024)
pEC50: −log10 of the molar value.

What follows are compounds tested on lung cancer cell line NCI-H82 (assay: Cell proliferation assay, NCI-H82 (CELL-TITER GLO)). Details: Homo sapiens, NCI-H82, 72 h, NCI-H82 cells, 72 h incubation, cell viability by CELL-TITER GLO, top concentration 1 μM; read-out: EC50, Inhibition of NCl-H82 Cell Proliferation.
Format: cell-based
In short: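 NCI-H82 cells, 1,000 per well in RPMI1640, were treated after overnight plating with a 3-fold dilution series from 1 μM. Viability read by CellTiter-Glo luminescence after 72 h. EC50 derived from the curves.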
C#Cc1nc(NC(=O)N2CCN(c3ccc(-c4cccc5nc(N)sc45)cc3)CC2)cs1 [Compound B27, 4-(4-(2-Aminobenzo[d]thiazol-7-yl)phenyl)-N-(2-ethynylthiazol-4-yl)piperazine-1-carboxamide] was tested, and the pEC50 was no less than 6.70.
Compound C#Cc1nc(NC(=O)N2CCN(c3ccc(-c4cccc5nnsc45)cc3)CC2)cs1 [Compound B28, 4-(4-(Benzo[d][1,2,3]thiadiazol-7-yl)phenyl)-N-(2-ethynylthiazol-4-yl)piperazine-1-carboxamide] has a pEC50 of no less than 6.70.
C#Cc1nc(NC(=O)N2CCN(c3ccc(-c4cccc(N5CCCC5)c4)cc3)C[C@H]2CO)cs1 [Compound B52, (S)—N-(2-Ethynylthiazol-4-yl)-2-(hydroxymethyl)-4-(3′-(pyrrolidin-1-yl)-[1,1′-biphenyl]-4-yl)piperazine-1-carboxamide] gave a pEC50 of no less than 6.70.
Compound C#Cc1nc(NC(=O)N2CCN(c3ccc(-c4cccc(N5CCCC5)c4)cc3C#N)C[C@@H]2CO)cs1 [Compound B53, (R)-4-(3-Cyano-3′-(pyrrolidin-1-yl)-[1,1′-biphenyl]-4-yl)-N-(2-ethynylthiazol-4-yl)-2-(hydroxymethyl)piperazine-1-carboxamide] has a pEC50 of no less than 6.70.
Compound C#Cc1nc(NC(=O)N2CCN(c3ccc(-c4cccc(N5CCCC5)c4)cc3)C[C@@H]2CO)cs1 [Compound B54, (R)—N-(2-Ethynylthiazol-4-yl)-2-(hydroxymethyl)-4-(3′-(pyrrolidin-1-yl)-[1,1′-biphenyl]-4-yl)piperazine-1-carboxamide] has a pEC50 of no less than 6.70.
Work on C#Cc1nc(NC(=O)N2CCN(c3ccc(-c4cccc(N5CCCC5)c4)cn3)C[C@@H]2CO)cs1 [Compound B56, (R)—N-(2-Ethynylthiazol-4-yl)-2-(hydroxymethyl)-4-(5-(3-(pyrrolidin-1-yl)-phenyl)pyridin-2-yl)piperazine-1-carboxamide] yielded a pEC50 of no less than 6.70.
C#Cc1nc(NC(=O)N2CCN(c3ncc(-c4cccc5ncsc45)cc3C#N)C[C@@H]2CO)cs1 [Compound B59, (R)-4-(5-(Benzo[d]thiazol-7-yl)-3-cyanopyridin-2-yl)-N-(2-ethynylthiazol-4-yl)-2-(hydroxymethyl)piperazine-1-carboxamide] showed a pEC50 of no less than 6.70.
